Measured values reported in patent publication US20200331904A1, “3-AMINO-[1,2,4]-TRIAZOLE DERIVATIVES AND THEIR USE FOR CONTROLLING UNDESIRED PLANT GROWTH” (Bayer CropScience Aktiengesellschaft, priority 2017, published 2020).

Columns and labels:
Format in all cases: in vivo
Setaria viridis = experiment: Pre-emergence herbicidal efficacy, SETVI; conditions: Table B1, application rate 320 g/ha, scored visually after about 3 weeks vs untreated controls
In short: (§1)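 Seeds were sown in pots and covered with soil; WP or EC formulations were sprayed onto the soil surface as aqueous suspension or emulsion with 0.5% additive. Pots were kept in a greenhouse, and after about 3 weeks damage was rated visually as percent versus untreated controls (100% = plants dead, 0% = like control).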

Polygonum convolvulus = experiment: Pre-emergence herbicidal efficacy, POLCO; conditions: Table B1, application rate 320 g/ha, scored visually after about 3 weeks vs untreated controls
In short: as §1

Viola tricolor [1] = experiment: Post-emergence herbicidal efficacy, VIOTR; conditions: application rate 320 g/ha, rated visually after about 3 weeks (Table B5)
In short: (§2)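 Greenhouse plants in sandy loam were sprayed at the one-leaf stage, 2–3 weeks after sowing. After about 3 weeks, activity was rated visually against untreated controls, from 0% (like control) to 100% (plants dead).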

Abutilon theophrasti = experiment: Pre-emergence herbicidal efficacy, ABUTH; conditions: Table B1, application rate 320 g/ha, scored visually after about 3 weeks vs untreated controls
In short: as §1

Lolium rigidum [2] = experiment: Pre-emergence herbicidal efficacy, LOLRI; conditions: Table B1, application rate 320 g/ha, scored visually after about 3 weeks vs untreated controls
In short: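 Seeds sown in pots and covered with soil. Greenhouse-grown about 3 weeks, then visually scored as % activity vs untreated controls (100% = dead, 0% = like control).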

Veronica persica [3] = experiment: Pre-emergence herbicidal efficacy, VERPE; conditions: Table B1, application rate 320 g/ha, scored visually after about 3 weeks vs untreated controls
In short: as §1

Amaranthus retroflexus [4] = experiment: Pre-emergence herbicidal efficacy, AMARE; conditions: Table B1, application rate 320 g/ha, scored visually after about 3 weeks vs untreated controls
In short: as §1

Viola tricolor [5] = experiment: Pre-emergence herbicidal efficacy, VIOTR; conditions: Table B1, application rate 320 g/ha, scored visually after about 3 weeks vs untreated controls
In short: as §1

Echinochloa crus-galli [6] = experiment: Pre-emergence herbicidal efficacy, ECHCG; conditions: Table B1, application rate 320 g/ha, scored visually after about 3 weeks vs untreated controls
In short: as §1

Echinochloa crus-galli [7] = experiment: Post-emergence herbicidal efficacy, ECHCG; conditions: application rate 320 g/ha, rated visually after about 3 weeks
Description: (§3) ABUTH: Abutilon theophrasti ALOMY: Alopecurus myosuroides AMARE: Amaranthus retroflexus AVEFA: Avena fatua CYPES: Cyperus esculentus ECHCG: Echinochloa crus-galli LOLMU: Lolium multiflorum MATIN: Matricaria inodora PHBPU: Ipomoea purpurea POLCO: Polygonum convolvulus SETVI: Setaria viridis STEME: Stellaria media VERPE: Veronica persica VTOTR: Viola tricolor
(§4) C.2 Post-Emergence Herbicidal Action and Crop Plant Compatibility
(§5) Seeds of monocotyledonous and dicotyledonous weeds and crop plants are placed in sandy loam in plastic or organic planting pots, covered with soil and cultivated in a greenhouse under controlled growth conditions. 2 to 3 weeks after sowing, the test plants are treated at the one-leaf stage. The compounds of the invention, formulated in the form of wettable powders (WP) or as emulsion concentrates (EC), are then sprayed onto the green parts of the plants as aqueous suspension or emulsion with addition of 0.5% additive at a water application rate of […] (converted). After the test plants had been kept in the greenhouse under optimum growth conditions for about 3 weeks, the activity of the preparations is rated visually in comparison to untreated controls. For example, 100% activity=the plants have died, 0% activity=like control plants.

Stellaria media [8] = experiment: Post-emergence herbicidal efficacy, STEME; conditions: application rate 320 g/ha, rated visually after about 3 weeks
Description: as §3, §4, §5

Stellaria media [9] = experiment: Pre-emergence herbicidal efficacy, STEME; conditions: Table B1, application rate 320 g/ha, scored visually after about 3 weeks vs untreated controls
In short: as §1

Amaranthus retroflexus [10] = experiment: Post-emergence herbicidal efficacy, AMARE; conditions: application rate 320 g/ha, rated visually after about 3 weeks
Description: as §3, §4, §5

harmful plants [11] = experiment: Post-emergence herbicidal action; conditions: applied post-emergence
Procedure: as §4, §5

Veronica persica [12] = experiment: Post-emergence herbicidal efficacy, VERPE; conditions: application rate 320 g/ha, rated visually after about 3 weeks (Table B5)
In short: as §2

Matricaria inodora = experiment: Pre-emergence herbicidal efficacy, MATIN; conditions: Table B1, application rate 320 g/ha, scored visually after about 3 weeks vs untreated controls
In short: as §1

harmful plants [13] = experiment: Pre-emergence herbicidal action; conditions: applied pre-emergence
Description: C.1 Pre-Emergence Herbicidal Action and Crop Plant Compatibility
Seeds of monocotyledonous and dicotyledonous weed plants and crop plants are placed in plastic or organic planting pots and covered with soil. The compounds of the invention, formulated in the form of wettable powders (WP) or as emulsion concentrates (EC), are then applied onto the surface of the covering soil as aqueous suspension or emulsion with addition of 0.5% additive at a water application rate of […] (converted). After the treatment, the pots are placed in a greenhouse and kept under good growth conditions for the trial plants. After about 3 weeks, the effect of the preparations is scored visually in comparison with untreated controls as percentages. For example, 100% activity=the plants have died, 0% activity=like control plants.

Lolium rigidum [14] = experiment: Post-emergence herbicidal efficacy, LOLRI; conditions: application rate 320 g/ha, rated visually after about 3 weeks
Procedure: as §4, §5

In the case of `Cc1ccc2c(c1)C(Nc1nc3n(n1)CCC(=O)N3C)CCC2` (stereo not drawn) [Example I-231], the “Herbicidal efficacy against SETVI” value (Setaria viridis) is reported as 100%, the “Herbicidal efficacy against POLCO” value (Polygonum convolvulus) is reported as 100% and the “Herbicidal efficacy against VIOTR” value (Viola tricolor [1]) is reported as 90%. The “Herbicidal efficacy against ABUTH” value (Abutilon theophrasti) was 100%, the “Herbicidal efficacy against LOLRI” value (Lolium rigidum [2]) was 100% and the “Herbicidal efficacy against VERPE” value (Veronica persica [3]) was 100%. The “Herbicidal efficacy against AMARE” value (Amaranthus retroflexus [4]) was 100%, the “Herbicidal efficacy against VIOTR” value (Viola tricolor [5]) was 100% and the “Herbicidal efficacy against ECHCG” value (Echinochloa crus-galli [6]) was 100%. The “Herbicidal efficacy against ECHCG” value (Echinochloa crus-galli [7]) was 100%, the “Herbicidal efficacy against STEME” value (Stellaria media [8]) was 80% and the “Herbicidal efficacy against STEME” value (Stellaria media [9]) was 100%. For the same compound, the “Herbicidal efficacy against AMARE” value (Amaranthus retroflexus [10]) was 80%, the “herbicidal efficacy against harmful plants” value (harmful plants [11]) was “very good herbicidal efficacy” and the “Herbicidal efficacy against VERPE” value (Veronica persica [12]) was 90%. For the same compound, the “Herbicidal efficacy against MATIN” value (Matricaria inodora) was 100%, the “herbicidal efficacy against harmful plants” value (harmful plants [13]) was “very good herbicidal efficacy” and the “Herbicidal efficacy against LOLRI” value (Lolium rigidum [14]) was 80%.
